This passage reports inhibition, Activity and IC50 results from ChEMBL document CHEMBL3046562, “Pharmacological Effects of Imidacloprid and Its Related Compounds on the Nicotinic Acetyicholine Receptor with Its Ion Channel from the Torpedo Electric Organ” (J Pestic Sci, 1995).

SMILES strings stand for the structures. Calls of active or inactive are those of the source. No cut-off for these calls is given here.

For experiment [1], the target named is Acetylcholine receptor subunit alpha (Torpedo californica) (UniProt P02710). In words: Displacement of [3H]alpha-BGT from nAChR in Torpedo nobiliana electric organs membranes at 1000 uM by scintillation counting method. Type of experiment: tissue-based. The following applies: Electric organ.
Experiment [2] has the same target. Put plainly: Increase in [3H]PCP binding to nAChR in Torpedo nobiliana electric organs membranes at 1 to 3 uM by scintillation counting method. Type of experiment: tissue-based. The following applies: Electric organ.
The target is the same in experiment [3]. Put plainly: Increase in [3H]PCP binding to nAChR in Torpedo nobiliana electric organs membranes by scintillation counting method. Type of experiment: tissue-based. The conditions noted are these: Electric organ.
Experiment [4] shares this target. Put plainly: Displacement of [3H]PCP from nAChR in Torpedo nobiliana electric organs membranes at 300 uM by scintillation counting method. The conditions noted are these: Electric organ. The experiment is classed as tissue-based.
For experiment [5] the target is unchanged. In words: Displacement of [3H]alpha-BGT from nAChR in Torpedo nobiliana electric organs membranes at 300 uM by scintillation counting method. The experiment is classed as tissue-based. The following applies: Electric organ.
Experiment [6] shares this target. Put plainly: Displacement of [3H]PCP from nAChR in Torpedo nobiliana electric organs membranes assessed as [3H]PCP binding level at 500 uM in presence of 100 uM carbachol by scintillation counting method relative to untreated control. Type of experiment: tissue-based. The following applies: Electric organ.
Experiment [7] has the same target. Put plainly: Displacement of [3H]PCP from nAChR in Torpedo nobiliana electric organs membranes assessed as [3H]PCP binding level at 500 uM by scintillation counting method relative to untreated control. Type of experiment: tissue-based. The following applies: Electric organ.
Experiment [8] has the same target. In words: Displacement of [3H]PCP from nAChR in Torpedo nobiliana electric organs membranes assessed as [3H]PCP binding level at 1000 uM pre-treated with 0.5 uM alpha-bungarotoxin by scintillation counting method relative to untreated control. The experiment is classed as tissue-based. The conditions noted are these: Electric organ.
For experiment [9] the target is unchanged. Put plainly: Displacement of [3H]PCP from nAChR in Torpedo nobiliana electric organs membranes assessed as [3H]PCP binding level at 1000 uM in presence of 100 uM carbachol by scintillation counting method relative to untreated control. Type of experiment: tissue-based. The conditions noted are these: Electric organ.
The target is the same in experiment [10]. Put plainly: Displacement of [3H]PCP from nAChR in Torpedo nobiliana electric organs membranes assessed as [3H]PCP binding level at 1000 uM by scintillation counting method relative to untreated control. The experiment is classed as tissue-based. The following applies: Electric organ.
Experiment [11] can be described thus: Displacement of [3H]alpha-BGT from nAChR in Torpedo nobiliana electric organs membranes by scintillation counting method.
The target of experiment [12] is Acetylcholine receptor subunit alpha (Torpedo californica) (UniProt P02710). In words: Displacement of [3H]PCP from nAChR in Torpedo nobiliana electric organs membranes at 1000 uM by scintillation counting method. The experiment is classed as tissue-based. The conditions noted are these: Electric organ.
For experiment [13] the target is unchanged. Put plainly: Displacement of [3H]PCP from nAChR in Torpedo nobiliana electric organs membranes assessed as [3H]PCP binding level at 300 uM pre-treated with 0.5 uM alpha-bungarotoxin by scintillation counting method relative to untreated control. The experiment is classed as tissue-based. The following applies: Electric organ.
The target is the same in experiment [14]. Put plainly: Displacement of [3H]PCP from nAChR in Torpedo nobiliana electric organs membranes assessed as [3H]PCP binding level at 300 uM in presence of 100 uM carbachol by scintillation counting method relative to untreated control. The experiment is classed as tissue-based. The conditions noted are these: Electric organ.
The target is the same in experiment [15]. In words: Displacement of [3H]PCP from nAChR in Torpedo nobiliana electric organs membranes assessed as [3H]PCP binding level at 300 uM by scintillation counting method relative to untreated control. The experiment is classed as tissue-based. The following applies: Electric organ.

Sequence of Acetylcholine receptor subunit alpha (Torpedo californica) (P02710 whole entry): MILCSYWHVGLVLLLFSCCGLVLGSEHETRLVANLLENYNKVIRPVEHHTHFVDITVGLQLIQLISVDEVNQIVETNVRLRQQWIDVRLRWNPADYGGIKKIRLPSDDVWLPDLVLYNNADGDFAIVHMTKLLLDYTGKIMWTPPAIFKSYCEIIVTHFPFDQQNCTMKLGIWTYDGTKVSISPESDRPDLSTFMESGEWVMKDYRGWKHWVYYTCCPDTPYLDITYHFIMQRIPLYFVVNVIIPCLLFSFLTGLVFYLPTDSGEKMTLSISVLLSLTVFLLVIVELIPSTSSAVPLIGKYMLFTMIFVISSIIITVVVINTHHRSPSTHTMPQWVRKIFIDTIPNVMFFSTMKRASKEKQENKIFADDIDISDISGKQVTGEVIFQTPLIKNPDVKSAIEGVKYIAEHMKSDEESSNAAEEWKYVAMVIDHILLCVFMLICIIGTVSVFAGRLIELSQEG

For `CN(C)CCCN1c2ccccc2Sc2ccc(Cl)cc21`, in [1], the inhibition was 7.15%. As to `COc1cc2c3cc1Oc1cc(ccc1O)C[C@@H]1c4c(cc(OC)c(O)c4Oc4ccc(cc4)C[C@@H]3N(C)CC2)CC[N+]1(C)C`, in experiment [2], the Activity was found to be 160%. In addition, the outcome in experiment [3] was Active. In experiment [4], this compound registered an inhibition of 91.3%.

In the case of `c1csc(C2(N3CCCCC3)CCCCC2)c1`, in experiment [5], the inhibition turned out to be 0.91%. In experiment [5], `CCN(Cc1ccc(Cl)nc1)/C(=C/[N+](=O)[O-])NC` registered an inhibition of 2.39%. The Activity in experiment [6] came out at 607%; in experiment [7], 142%.

On to `O=[N+]([O-])C=C1NCCCS1`, for which the Activity in experiment [8] was 112%; in experiment [9] it was 762%; in experiment [10], 439%. The same compound showed an IC50 in experiment [11] of 1590 µM. In turn, `CNC1(c2ccccc2Cl)CCCCC1=O` (configuration not stated) showed an inhibition in experiment [1] of 0.1%.

For `CN1CCC[C@@H]1c1cccnc1`, the result in experiment [3] was Active. For the compound `O=C1N(Cc2ccccc2)C2C[S+]3CCCC3C2N1Cc1ccccc1` (configuration not stated), the inhibition came out at 5.7% in experiment [5], 59.5% in experiment [12] and 5.93% in experiment [4]. As to `O=[N+]([O-])/N=C1\NCCN1Cc1ccc(Cl)nc1` [IMIDACLOPRID], the values for the Activity in [13], in [14] and in [15] were 108%, 92.4% and 287%, respectively. For the same compound, the IC50 in experiment [11] came to 1060 µM. With `CN1CCC[C@H]1c1cccnc1` [NICOTINE], in experiment [3], the result was Active. For the same compound, the IC50 in experiment [11] came out at 23.1 µM. Regarding `C[N+]1(C)CCN(c2ccccc2)CC1`, in experiment [3], the outcome was Active. As for `C[N+](C)(C)CCOC(N)=O` [CARBACHOL], the result in [3] was Active. The compound also yielded an IC50 in [11] of 7.64 µM. Consider `CSCCN1CCN/C1=C\[N+](=O)[O-]`, for which the figures for the Activity in experiment [14] and in [15] were 830% and 181%, respectively.

With `c1cncc([C@@H]2CCCCN2)c1` [ANABASINE], the outcome in experiment [3] was Active. Moreover, the IC50 in experiment [11] turned out to be 193 µM. Take `O=[N+]([O-])/C=C1\NCCN1Cc1ccc(Cl)nc1`: the Activity came out at 142% in [13], 94.6% in experiment [14] and 461% in experiment [15].

In turn, `CN1[C@@H](CC(=O)c2ccccc2)CCC[C@H]1C[C@H](O)c1ccccc1` had an inhibition in [1] of 0%. `CNC1(C)C2CCC(C2)C1(C)C` (configuration not stated) had an inhibition in [1] of 0%. In turn, `c1ccc(C2(N3CCCCC3)CCCCC2)cc1` displayed an inhibition in [1] of 3.2%. `C/C(=N\C#N)N(C)Cc1ccc(Cl)nc1`: the Activity in [13] is 104%; in experiment [14], 93.3%; in [15] it was 221%. Regarding `O=c1cccc2n1C[C@@H]1CNC[C@H]2C1`, the result in [3] was Active. Consider `CN(C)C1CSSC1`, for which the outcome in experiment [3] was Active. As for `CCC[C@H]1CCCCN1`, the outcome in experiment [3] was Active.
